Measured values published in publication PMC2788677 (Journal of medicinal chemistry, 2009).

Tests used:
MOR [1] = conditions: cited from earlier work
MOR [2] = assay: Radioligand binding assay, CHO cells stably expressing MOR, [3H]DAMGO; conditions: relative to dermorphin

Substance: Dermorphin
- higher affinity than morphine for MOR (MOR [1]): 100 fold
- Rel. MOR affinity (MOR [2]): 1.0
